# Test system: Co-Kultur-System
# Assay: Collagen neosynthesis in co-culture system (2D fibroblast culture with 3D epidermis model insert), P1 NP secreted into the medium
# Type: cell-based
# Conditions: unbehandelt = 107
# Source text: Zum Nachweis der Kollagen-Neusynthese wurde ein Co-Kultur-System verwendet, das aus einer zweidimensionalen Fibroblasten-Kultur besteht, auf die in einem Insert ein dreidimensionales Epidermismodell aufgesetzt wurde. Über das Nährmedium kann ein Stoffaustausch zwischen den Fibroblasten und den Keratinocyten des Epidermismodells erfolgen.
# Als Kontrollen für die Syntheseinduktion wurden Retinsäure und Retinol eingesetzt.
structure (smiles),measurement,setting,value
"CC(C)(C)C(=O)C(Oc1ccc(Cl)cc1)n1ccnc1 (stereo not drawn) [Climbazol, Imidazolyl-1-(4-chlorophenoxy)-3,3-dimethylbutane-2-one]",P1 NP,"Climbazol 0,005%",135 µg/mL
CC1=C(/C=C/C(C)=C/C=C/C(C)=C/CO)C(C)(C)CCC1 [Retinol],P1 NP,Retinol 5µM,146 µg/mL
CC1=C(/C=C/C(C)=C/C=C/C(C)=C/C(=O)O)C(C)(C)CCC1 [Retinsäure],P1 NP,Retinsäure 5µM,200 µg/mL

# From patent EP2628479A1, “Cosmetic use of climbazol” (Henkel AG&Co. KGAA, priority 2011, dated 2013)
